{"source": "ChEMBL document CHEMBL4371024", "about": "“Synthesis and characterization of pyridoxine, nicotine and nicotinamide salts of dithiophosphoric acids as antibacterial agents against resistant wound infection” (Bioorg Med Chem, 2019)", "key": {"[1]": {"system": "Staphylococcus aureus", "assay": "Antibacterial activity against Staphylococcus aureus ATCC 29213 after 24 hrs by broth dilution method", "assay_type": "functional", "conditions": "ATCC 29213, 24 h"}, "[2]": {"system": "Pseudomonas aeruginosa", "assay": "Antibacterial activity against Pseudomonas aeruginosa ATCC 27853 after 24 hrs by broth dilution method", "assay_type": "functional", "conditions": "ATCC 27853, 24 h"}, "[3]": {"system": "Staphylococcus epidermidis", "assay": "Antibacterial activity against Staphylococcus epidermidis after 24 hrs by broth dilution method", "assay_type": "functional"}, "[4]": {"system": "Klebsiella pneumoniae", "assay": "Antibacterial activity against Klebsiella pneumoniae after 24 hrs by broth dilution method", "assay_type": "functional"}, "[5]": {"system": "Erythrocyte", "assay": "Hemolytic activity in human erythrocytes at 1 mM", "assay_type": "ADME, cell-based", "conditions": "1000 µM"}, "[6]": {"system": "Staphylococcus aureus", "assay": "Inhibition of extracellular component secretion and matrix formation in Staphylococcus aureus assessed as induction of morphological changes at 1 uM by scanning electron microscopy", "assay_type": "functional, organism-based"}, "[7]": {"system": "Staphylococcus aureus", "assay": "Inhibition of extracellular component secretion and matrix formation in Staphylococcus aureus assessed as inhibition of polysaccharide matrix formation at 1 uM by scanning electron microscopy", "assay_type": "functional, organism-based"}, "[8]": {"system": "Pseudomonas aeruginosa", "assay": "Inhibition of extracellular component secretion and matrix formation in Pseudomonas aeruginosa assessed as induction of morphological changes at 1 uM by scanning electron microscopy", "assay_type": "functional, organism-based"}, "[9]": {"system": "Pseudomonas aeruginosa", "assay": "Inhibition of extracellular component secretion and matrix formation in Pseudomonas aeruginosa assessed as inhibition of polysaccharide matrix formation at 1 uM by scanning electron microscopy", "assay_type": "functional, organism-based"}, "[10]": {"system": "Pseudomonas aeruginosa", "assay": "Bactericidal activity against Pseudomonas aeruginosa ATCC 27853 incubated for 24 hrs followed by replating on Mueller-Hinton agar and further incubated for 24 hrs", "assay_type": "functional", "conditions": "ATCC 27853, 24 h"}, "[11]": {"system": "Klebsiella pneumoniae", "assay": "Bactericidal activity against Klebsiella pneumoniae incubated for 24 hrs followed by replating on Mueller-Hinton agar and further incubated for 24 hrs", "assay_type": "functional"}, "[12]": {"system": "Staphylococcus aureus", "assay": "Bactericidal activity against Staphylococcus aureus ATCC 29213 incubated for 24 hrs followed by replating on Mueller-Hinton agar and further incubated for 24 hrs", "assay_type": "functional", "conditions": "ATCC 29213, 24 h"}, "[13]": {"system": "Staphylococcus aureus", "assay": "Antibacterial activity against methicillin, cefoxytin, levfloxacin-resistant and erythromycin, clindamycin-senstitive Staphylococcus aureus after 24 hrs by broth dilution method", "assay_type": "functional"}, "[14]": {"system": "Staphylococcus aureus", "assay": "Antibacterial activity against methicillin, cefoxytin-resistant and levofloxacin, erythromycin, clindamycin-senstitive Staphylococcus aureus after 24 hrs by broth dilution method", "assay_type": "functional"}, "[15]": {"system": "Staphylococcus aureus", "assay": "Antibacterial activity against multidrug-resistant Staphylococcus aureus after 24 hrs by broth dilution method", "assay_type": "functional"}, "[16]": {"system": "Pseudomonas aeruginosa", "assay": "Antibacterial activity against multidrug-resistant Pseudomonas aeruginosa after 24 hrs by broth dilution method", "assay_type": "functional"}, "[17]": {"system": "Pseudomonas aeruginosa", "assay": "Antibacterial activity against ciprofloxacin, imipenem, meronem-resistant and cefepime, piperacillin-tazobactam-sensitive Pseudomonas aeruginosa after 24 hrs by broth dilution method", "assay_type": "functional"}, "[18]": {"system": "Pseudomonas aeruginosa", "assay": "Antibacterial activity against ciprofloxacin-resistant and multidrug-sensitive Pseudomonas aeruginosa after 24 hrs by broth dilution method", "assay_type": "functional"}, "[19]": {"system": "Pseudomonas aeruginosa", "assay": "Antibacterial activity against multidrug-sensitive Pseudomonas aeruginosa after 24 hrs by broth dilution method", "assay_type": "functional"}, "[20]": {"system": "Klebsiella pneumoniae", "assay": "Antibacterial activity against multidrug-sensitive Klebsiella pneumoniae after 24 hrs by broth dilution method", "assay_type": "functional"}, "[21]": {"system": "Enterobacter cloacae", "assay": "Antibacterial activity against multidrug-resistant and sensitive Enterobacter cloacae after 24 hrs by broth dilution method", "assay_type": "functional"}, "[22]": {"system": "Escherichia coli", "assay": "Antibacterial activity against multidrug-resistant and sensitive Escherichia coli after 24 hrs by broth dilution method", "assay_type": "functional"}, "[23]": {"assay": "Cytotoxicity against human HSF cells after 72 hrs by MTT assay", "assay_type": "cell-based"}, "[24]": {"assay": "Cytotoxicity against human HSF cells after 24 hrs by MTT assay", "assay_type": "cell-based"}, "[25]": {"system": "Erythrocyte", "assay": "Hemolytic activity in human erythrocytes at >100 uM", "assay_type": "ADME, cell-based"}, "[26]": {"assay": "Aggregation property of the compound in DMEM culture medium at 1 mM after 1 hr by dynamic light scattering method", "assay_type": "physicochemical", "conditions": "1000 µM"}, "[27]": {"system": "Staphylococcus aureus", "assay": "Drug interaction with Staphylococcus aureus cellular surface assessed as decrease in zeta potential at 1 mM treated for 1 hr followed by washing and measured by dynamic light scattering method", "assay_type": "functional"}, "[28]": {"system": "Pseudomonas aeruginosa", "assay": "Drug interaction with Pseudomonas aeruginosa cellular surface assessed as decrease in zeta potential at 1 mM treated for 1 hr followed by washing and measured by dynamic light scattering method", "assay_type": "functional"}, "[29]": {"system": "Klebsiella pneumoniae", "assay": "Ratio of MBC to MIC against Klebsiella pneumoniae", "assay_type": "functional"}, "[30]": {"system": "Pseudomonas aeruginosa", "assay": "Ratio of MBC to MIC against Pseudomonas aeruginosa ATCC 27853", "assay_type": "functional"}, "[31]": {"system": "Staphylococcus aureus", "assay": "Ratio of MBC to MIC against Staphylococcus aureus ATCC 29213", "assay_type": "functional"}, "[32]": {"assay": "Aggregation property of the compound assessed as mean hydrodynamic diameter at 1 mM after 1 hr by dynamic light scattering method", "assay_type": "physicochemical", "conditions": "1000 µM"}}, "note": "Calls of active or inactive are those of the source. The rule behind the calls is not given here."}
{"smiles": "CC1(C)[C@H]2CC[C@](C)(C2)[C@H]1OP(=S)(S)O[C@H]1C(C)(C)[C@H]2CC[C@]1(C)C2", "values": [{"measurement": "MIC", "setting": "[1]", "result": 240, "unit": "µM"}, {"measurement": "MIC", "setting": "[2]", "result": 1940, "unit": "µM"}, {"measurement": "MIC", "setting": "[3]", "result": 240, "unit": "µM"}, {"measurement": "MIC", "setting": "[4]", "result": 1940, "unit": "µM"}]}
{"smiles": "CC(C)[C@@H]1CC[C@@H](C)C[C@H]1OP(=S)(S)O[C@@H]1C[C@H](C)CC[C@H]1C(C)C", "values": [{"measurement": "MIC", "setting": "[1]", "result": 190, "unit": "µM"}, {"measurement": "MIC", "setting": "[2]", "result": 380, "unit": "µM"}, {"measurement": "MIC", "setting": "[3]", "result": 380, "unit": "µM"}, {"measurement": "MIC", "setting": "[4]", "result": 1540, "unit": "µM"}, {"measurement": "Activity", "setting": "[5]", "result": "Toxic"}]}
{"smiles": "CC(C)[C@@H]1CC[C@@H](C)C[C@H]1OP(=S)(S)O[C@@H]1C[C@H](C)CC[C@H]1C(C)C.CN1CCC[C@H]1c1cccnc1", "values": [{"measurement": "Activity", "setting": "[6]", "result": "Active"}, {"measurement": "Activity", "setting": "[7]", "result": "Active"}, {"measurement": "Activity", "setting": "[8]", "result": "Active"}, {"measurement": "Activity", "setting": "[9]", "result": "Active"}]}
{"smiles": "C[C@@H]1[C@@H](OP(=S)(S)O[C@H]2C[C@H]3C[C@@H]([C@@H]2C)C3(C)C)C[C@H]2C[C@@H]1C2(C)C.NC(=O)c1cccnc1", "values": [{"measurement": "MIC", "setting": "[1]", "result": 300, "unit": "µM"}, {"measurement": "MIC", "setting": "[2]", "result": 4780, "unit": "µM"}, {"measurement": "MIC", "setting": "[3]", "result": 300, "unit": "µM"}, {"measurement": "MIC", "setting": "[4]", "result": 4780, "unit": "µM"}]}
{"smiles": "CC(C)[C@@H]1CC[C@@H](C)C[C@H]1OP(=S)(S)O[C@@H]1C[C@H](C)CC[C@H]1C(C)C.Cc1ncc(CO)c(CO)c1O", "values": [{"measurement": "MIC", "setting": "[1]", "result": 20, "unit": "µM"}, {"measurement": "MIC", "setting": "[2]", "result": 320, "unit": "µM"}, {"measurement": "MIC", "setting": "[3]", "result": 10, "unit": "µM"}, {"measurement": "MIC", "setting": "[4]", "result": 320, "unit": "µM"}, {"measurement": "MBC", "setting": "[10]", "result": 320, "unit": "µM"}, {"measurement": "MBC", "setting": "[11]", "result": 640, "unit": "µM"}, {"measurement": "MBC", "setting": "[12]", "result": 40, "unit": "µM"}, {"measurement": "MIC", "setting": "[13]", "result": 20, "unit": "µM"}, {"measurement": "MIC", "setting": "[14]", "result": 20, "unit": "µM"}, {"measurement": "MIC", "setting": "[15]", "result": 20, "unit": "µM"}, {"measurement": "MIC", "setting": "[16]", "result": 323, "unit": "µM"}, {"measurement": "MIC", "setting": "[17]", "result": 323, "unit": "µM"}, {"measurement": "MIC", "setting": "[18]", "result": 323, "unit": "µM"}, {"measurement": "MIC", "setting": "[19]", "result": "323 to 647", "unit": "µM"}, {"measurement": "MIC", "setting": "[20]", "result": 323, "unit": "µM"}, {"measurement": "MIC", "setting": "[21]", "result": 323, "unit": "µM"}, {"measurement": "MIC", "setting": "[22]", "result": 323, "unit": "µM"}, {"measurement": "IC50", "setting": "[23]", "result": 48.6, "unit": "µM"}, {"measurement": "IC50", "setting": "[24]", "result": 92.2, "unit": "µM"}, {"measurement": "Activity", "setting": "[25]", "result": "Toxic"}, {"measurement": "Activity", "setting": "[26]", "result": "Active"}, {"measurement": "fold change (FC)", "setting": "[27]", "result": 1.2}, {"measurement": "fold change (FC)", "setting": "[28]", "result": 1.2}, {"measurement": "Ratio", "setting": "[29]", "result": 2}, {"measurement": "Ratio", "setting": "[30]", "result": 2}, {"measurement": "Ratio", "setting": "[31]", "result": 2}, {"measurement": "Activity", "setting": "[32]", "result": 108.9, "unit": "nm"}]}
